Measured values: patent US20160319367A1, “MEANS AND METHODS FOR TYPING A BREAST CANCER PATIENT AND ASSIGNING THERAPY BASED ON THE TYPING” (STICHTING HET NEDERLANDS KANKER INSTITUUT-ANTONI VAN …, priority 2013, published 2016)

Tests used:
ZR-75-1 cells [1] = assay: RNA-seq global gene expression analysis in ZR-75-1 cells; type: cell-based, human; conditions: hormone depletion for 72 hours, treated for 48 hours, RNAseq, p<0.05
Method: Transcriptome sequencing analysis of the cell line ZR-75-1 with stable USP9X knockdown or a control vector were performed using RNA-Seq. The reads (14-30 million 50 bp single-end) were mapped to the human reference genome (hg19) using TopHat (Trapnell et al., 2009. Bioinformatics 25: 1105-1127), which allows to span exon-exon splice junctions. TopHat was supplied with a known set of gene models (Ensembl version 64). The open-source tool HTSeq-Count was used to obtain gene expressions. This tool generates a list of the total number of uniquely mapped sequencing reads for each gene that is present in the provided Gene Transfer Format (GTF) file. In order to identify differentially expressed genes, the random sampling model in the R package […] al., 2010. Bioinformatics 26: 136-8.28) was used. […] The input of this method is the absolute number of reads for a gene, which is the output of HTSeq-count. Genes with no expression across both samples in the comparison were discarded from the dataset. The expression levels of the remaining genes were added with 1 in order to avoid negative values after log 2 transformation during the normalization step within this method. […] We therefore asked whether USP9X knockdown in tamoxifen-treated cells would also give rise to a typical estradiol-responsive gene set. […]

[2] = cited from earlier work
ERα = ERα ChIP-seq (ERα/chromatin interactions) in ZR-75-1 cells; type: cell-based, human; conditions: control ZR-75-1 cells (pRS-GFP), hormone depleted 72 hours, ligand for 48 hours
Method: Chromatin Immunoprecipitations (ChIP) were performed as described before (Schmidt et al., 2009. Methods 48: 240-8). For each ChIP, 10 μg of antibody was used, and 100 μl of Protein A magnetic beads (Invitrogen). The antibody used was raised against ERα (SC-543; Santa Cruz).
ChIP DNA was amplified as described (Schmidt et al., 2009. Methods 48: 240-8). Sequences were generated by the Illumina Hiseq 2000 genome analyser (using 50 bp reads), and aligned to the Human Reference Genome (assembly hg19, February 2009). Enriched regions of the genome were identified by comparing the ChIP samples to mixed input using the MACS peak caller (Zhang et al., 2008. Genome Biol 9: R137) version 1.3.7.1.
ChIP-seq data snapshots were generated using the Integrative Genome Viewer IGV 2.1 (www.broadinstitute.org/igv/). Motif analyses were performed through the Cistrome (cistrome.org), applying the SeqPos motif tool (He et al., 2010. Nat Genet 42: 343-7). The genomic distributions of binding sites were analysed using the cis-regulatory element annotation system (CEAS) (Ji et al., 2006. Nucleic Acids Res 34: W551-4). The genes closest to the binding site on both strands were analysed. If the binding region is within a gene, CEAS software indicates whether it is in a 5′UTR, a 3′UTR, a coding exon, or an intron. Promoter is defined as 3 kb upstream from RefSeq 5′ start. […]

ZR-75-1 cells [3] = assay: Colony formation / proliferation assay in ZR-75-1 cells; type: cell-based, human; conditions: 1 μM 4OH-tamoxifen or 10^-7 M fulvestrant
Method: The human breast cancer cell lines ZR-75-1 (ATCC CRL-1500), MDA-MB-231 (ATCC HTB-26) and T47D (ATCC HTB133) were cultured in DMEM supplemented with 10% FCS, 2 mM glutamine, 100 μg/ml penicillin, 100 μg/ml streptomycin, and 1 nM estradiol at 37° C. in 5% CO2. […] Phoenix cells (ATCC CRL-3214) were cultured at 37° C. in 5% CO2 in DMEM with 10% FCS, 2 mM glutamine, 100 μg/ml penicillin, and 100 μg/ml streptomycin.
Cells were infected with retroviral supernatant and selected with puromycin (2.0 μg/ml). […] When colonies appeared, cells were fixed in MeOH/HAc (3:1) and subsequently stained with 50% MeOH/10% HAc/0.1% Coomassie.

[4] = early breast cancer, 5 years of adjuvant treatment

Compound: C[C@]12CC[C@@H]3c4ccc(O)cc4CC[C@H]3[C@@H]1CC[C@@H]2O [estradiol]
- number of genes with altered expression as compared to vehicle (ZR-75-1 cells [1]): 8794 genes

Compound: CC/C(=C(\c1ccccc1)c1ccc(OCCN(C)C)cc1)c1ccccc1.O=C(O)CC(O)(CC(=O)O)C(=O)O [tamoxifen, (Z)2-[4-(1,2-diphenyl-1-butenyl)phenoxy]-N, N-dimethylethanamine 2-hydroxy-1,2,3-propanetricarboxylate (1:1)]
- rate of disease recurrence [2, 4]: almost halves
- reduction of annual breast cancer death rate [2, 4]: one-third
- women who still develop recurrent disease despite adjuvant treatment ([2]; in the next 15 years): one-third

Compound: CC/C(=C(\c1ccc(O)cc1)c1ccc(OCCN(C)C)cc1)c1ccccc1 [4OH-tamoxifen]
- ERα/chromatin interactions (ERα): far less pronounced
- number of genes with altered expression as compared to vehicle (ZR-75-1 cells [1]): 1906 genes

Compound: C[C@]12CC[C@@H]3c4ccc(O)cc4C[C@@H](CCCCCCCCC[S+]([O-])CCCC(F)(F)C(F)(F)F)[C@H]3[C@@H]1CC[C@@H]2O (stereo partly drawn) [fulvestrant, (7α,17β)-7-{9-[(4,4,5,5,5-pentafluoropentyl)sulfinyl]nonyl}estra-1,3,5(10)-triene-3,17-diol]
- cell proliferation (ZR-75-1 cells [3]): proliferation arrest
